Laboratory results taken from patent US20070219214A1, “Dual NK2/NK3-antagonists, pharmaceutical compositions comprising them, and processes for their preparation” (Solvay pharmaceuticals GmbH, priority 2006, published 2007).
Like-named read-outs stand apart in the source and are kept apart here.

Assays:
[1] = target: T1, human NK2-receptor (Homo sapiens, UniProt P21452); test: Binding potency of the test substances to NK2-receptors in vitro ([3H]-SR 48968 displacement); set-up: expressed in transfected cells; host or cells: CHO cells (membrane preparation); conditions: human NK2-receptor in CHO cell membranes, [3H]-SR 48968 (saredutant), average of at least three measurements; for Ki: read-out: pKi, binding potency to NK2-receptors (converted)
T1 sequence (P21452 1-398): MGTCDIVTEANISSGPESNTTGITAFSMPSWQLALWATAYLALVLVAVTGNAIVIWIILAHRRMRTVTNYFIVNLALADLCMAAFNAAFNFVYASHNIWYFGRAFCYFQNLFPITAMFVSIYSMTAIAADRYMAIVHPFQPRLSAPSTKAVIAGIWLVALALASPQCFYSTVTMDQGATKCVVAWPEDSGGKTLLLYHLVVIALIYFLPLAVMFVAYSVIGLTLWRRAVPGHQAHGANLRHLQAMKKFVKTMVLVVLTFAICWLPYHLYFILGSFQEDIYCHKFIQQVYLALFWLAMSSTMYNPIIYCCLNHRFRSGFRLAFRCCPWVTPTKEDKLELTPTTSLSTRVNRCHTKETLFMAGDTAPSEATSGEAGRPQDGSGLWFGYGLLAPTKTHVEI
Outline: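 Membranes from CHO cells stably expressing the receptor were incubated with [3H]-saredutant plus test compound, then filtered and counted by liquid scintillation. Nonspecific binding defined with 0.1 μmol/l unlabeled saredutant. IC50 from displacement converted to Ki via Cheng-Prusoff and reported as pKi, averaged over measurements.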

[2] = target: T1, human NK2-receptor; test: Functional cellular test, Ca2+ measurements using FLIPR for NK2 activity; conditions: for pA2 data for NK2: CHO cells, human NK2, FLIPR Ca2+, agonist NKA 10^-7 M;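 as to all read-outs here: CHO cells stably expressing the human receptor, loaded with a calcium dye, antagonist inhibition of ligand-evoked intracellular calcium rise read as peak fluorescence change on FLIPR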
Description: Functional Cellular Tests of the NK1-, NK2- and NK3-Antagonism
Functional cellular tests of the antagonistic effect of the compounds of the present invention on the human tachykinin receptors were performed in CHO cells expressing the recombinant human NK1, NK2 or NK3-receptor. In these tests the inhibition of ligand-induced increase in mobilization of intracellular calcium and inhibition of ligand-induced phosphorylation of mitogen activated protein kinase (MAPK) were determined, which can be used as a measure of functional activity of tachykinin-antagonists. Additionally, the antagonistic properties of reference compounds on the different tachykinin receptors were characterized for comparison.
The effects of test compounds were assessed using Chinese hamster ovary (CHO) fibroblast cells, stably expressing cloned human NK1, NK2 or NK3-receptors. The NK receptor is coupled to Gq. The activation of the Gq protein by ligand binding to the receptor leads to a mobilization of intracellular calcium and phosphorylation of MAPK. Both systems were used to determine functional effects of the test compounds.
Ca^2+ Measurements Using FLIPR for NK1 and NK2 Activity
For tests, cells were seeded 24 hours prior to the experiment into black 96-well microplates. The cell density was 2.2×10^4 cells/well. All steps were done under sterile conditions. In order to observe changes in intracellular calcium levels, cells were loaded with a calcium-sensitive dye. This dye (FLUO-4, from Molecular Probes) excites at 488 nm, and emits in the 500 nm to 560 nm range, only if a complex with calcium is formed. For the dye loading the growth-medium was aspirated out of the well without disturbing the confluent cell layer and 100 μl loading medium (HBSS, 4 μM FLUO-4, 0.005% (w/v) pluronic acid, 2.5 mM probenecid, 20 mM HEPES, pH 7.4) was dispensed into each well using an automatic pipettor system (Multidrop, Labsystems). Pluronic acid was added to increase dye solubility and dye uptake into the cells, whereas probenecid, an anion exchange inhibitor, was added to the loading medium to increase dye retention in the cells. The cells were incubated in a 5% CO2 incubator at 37° C. for 40 minutes. After dye loading, the cells were washed three times with wash-buffer (HBSS, 2.5 mM probenecid, 20 mM HEPES, pH 7.4) to reduce basal fluorescence. In the last washing step the buffer was aspirated and replaced with 100 μl washing buffer. […] The FLIPR setup parameters were set to 0.4 sec exposure length, filter 1, 50 μl fluid addition, pipettor height at 125 μl, dispense speed 40 μl/sec without mixing. Maximal fluorescence changes were obtained using the statistic function of the FLIPR software, and data plotted using GraphPad Prism 4. All points were expressed as a percentage inhibition of the control agonist. IC50 values were determined using sigmoidal dose-response curve fitting. Antagonist potencies (pA2) values were calculated using equation: pA2=−log(IC50/(1+[L]/EC50)),

[3] = target: T2, NK2-receptor (Cavia porcellus, UniProt Q64077); test: NK2-receptor-antagonistic effectiveness in vivo, NKA-induced late hypotension, bronchoconstriction and colonic pressure in anaesthetised guinea pigs; conditions: guinea pig; for ED50 iv after 1 min (cumulative), NK2 (bronchoconstriction) / ED50 iv after 1 min (cumulative), NK2 (colonic motility) / ED50 iv after 1 min (cumulative), NK2 (late hypotension) / ED50 AUC1-180 min oral, NK2 (bronchoconstriction) / ED50 AUC1-180 min oral, NK2 (colonic motility) / ED50 AUC1-180 min oral, NK2 (late hypotension): NKA 200 pmol/animal i.v.; for ED50 iv after 1 min (cumulative), NK2 (bronchoconstriction) / ED50 iv after 1 min (cumulative), NK2 (colonic motility) / ED50 iv after 1 min (cumulative), NK2 (late hypotension): intravenous administration; for oral activity on the NK2, in words / ED50 AUC1-180 min oral, NK2 (bronchoconstriction) / ED50 AUC1-180 min oral, NK2 (colonic motility) / ED50 AUC1-180 min oral, NK2 (late hypotension): oral administration
T2 construct: from tissue; host or cells: whole animal (Pirbright-White guinea pigs), in vivo
T2 sequence (Q64077 1-402): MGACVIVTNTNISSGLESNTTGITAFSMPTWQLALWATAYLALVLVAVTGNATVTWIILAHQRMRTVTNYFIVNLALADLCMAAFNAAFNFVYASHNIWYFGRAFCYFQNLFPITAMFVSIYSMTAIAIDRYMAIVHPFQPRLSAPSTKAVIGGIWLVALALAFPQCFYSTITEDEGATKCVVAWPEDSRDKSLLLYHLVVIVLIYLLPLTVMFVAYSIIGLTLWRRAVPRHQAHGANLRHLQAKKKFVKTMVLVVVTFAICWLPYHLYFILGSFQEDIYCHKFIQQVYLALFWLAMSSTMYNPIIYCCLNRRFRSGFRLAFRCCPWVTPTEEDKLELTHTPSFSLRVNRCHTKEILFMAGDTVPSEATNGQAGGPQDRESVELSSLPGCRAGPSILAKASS
Description: 10. Determination of the NK1- and NK2-Receptor-Antagonistic Effectiveness of the Test Substances In Vivo
The NK1- and NK2-antagonistic activities of the test substances were investigated in anaesthetised guinea pigs in each case after intravenous (=i.v.) and oral (=p.o.) administration in vivo. With the present test model it is possible to detect both NK2-antagonistic effects in three different organ systems (respiratory tracts, colon and circulation) and NK1-antagonistic effects (rapid drop in blood pressure) in an animal simultaneously.
Pirbright-White guinea pigs of a body weight of 500-700 g were anaesthetised with ketamine/xylazine (67/13 mg/kg subcutaneously, initial dose, further doses administered as required). The animals were provided with an intravenous catheter in order to administer the substance and an intra-arterial catheter to measure the blood pressure. The animals were artificially ventilated via a tracheal cannula and the respiratory pressure was recorded by means of a pressure transducer. A balloon was introduced into the distal colon of the animals for manometric recording of colon motility by means of a pressure transducer. Blood pressure, heart rate, respiratory pressure and colonic pressure were measured continuously for each animal and plotted on a recorder and by means of a digital data-processing system. […] The second phase of delayed hypotension (=phase of maximum hypotension after 2-5 min.) on the other hand is mediated via NK2-receptors, since they can be blocked by specific NK2-receptor antagonists.
These ED50 values obtained from cumulative dose effect curves are plotted in Table 13.

[4] = target: T3, human NK3 receptor (Homo sapiens, UniProt P29371); test: Functional cellular test, Ca2+ measurements using aequorin for NK3 activity; type: cell-based; set-up: expressed in transfected cells; host or cells: cell line co-expressing mitochondrially targeted apoaequorin (CHO according to b76/b77); conditions: for Kb: read-out: pA2 data for NK3 (converted); for pA2 data for NK3: cell line with human NK3 receptor and apoaequorin, agonist senktide 5x10-8 M
T3 sequence (P29371 1-465): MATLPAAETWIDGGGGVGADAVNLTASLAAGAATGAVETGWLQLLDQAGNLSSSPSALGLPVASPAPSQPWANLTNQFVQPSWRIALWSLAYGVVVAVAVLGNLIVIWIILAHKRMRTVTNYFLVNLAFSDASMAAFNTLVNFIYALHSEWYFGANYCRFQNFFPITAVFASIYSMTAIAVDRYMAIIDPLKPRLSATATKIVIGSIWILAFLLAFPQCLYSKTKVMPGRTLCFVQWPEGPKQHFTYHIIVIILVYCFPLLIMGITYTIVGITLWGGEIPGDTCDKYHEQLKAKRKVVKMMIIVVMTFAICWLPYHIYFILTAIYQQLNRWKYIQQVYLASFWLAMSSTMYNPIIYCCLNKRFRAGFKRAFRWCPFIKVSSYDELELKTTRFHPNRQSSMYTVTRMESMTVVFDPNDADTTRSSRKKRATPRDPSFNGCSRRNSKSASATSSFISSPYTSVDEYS

[5] = iv, read-out: ED50 iv after 1 min (cumulative), NK2 (bronchoconstriction)
[6] = iv, read-out: ED50 iv after 1 min (cumulative), NK2 (colonic motility)
[7] = iv, read-out: ED50 iv after 1 min (cumulative), NK2 (late hypotension)

Compound | Ki [1] | Kb [2] | ED50 [3, 5] | ED50 [3, 6] | ED50 [3, 7] | Kb [4] | pKi, binding potency to NK2-receptors [1] | pA2 data for NK2 [2] | ED50 iv after 1 min (cumulative), NK2 (bronchoconstriction) [3] | ED50 iv after 1 min (cumulative), NK2 (colonic motility) [3] | ED50 iv after 1 min (cumulative), NK2 (late hypotension) [3] | pA2 data for NK3 [4] | oral activity on the NK2, in words [3] | ED50 ([3]; read-out: ED50 AUC1-180 min oral, NK2 (bronchoconstriction)) | ED50 ([3]; read-out: ED50 AUC1-180 min oral, NK2 (colonic motility)) | ED50 ([3]; read-out: ED50 AUC1-180 min oral, NK2 (late hypotension)) | ED50 AUC1-180 min oral, NK2 (bronchoconstriction) [3] | ED50 AUC1-180 min oral, NK2 (colonic motility) [3] | ED50 AUC1-180 min oral, NK2 (late hypotension) [3]
CN(C)C(=O)C1(N2CCCCC2)CCN(CC[C@H](CN(C)C(=O)c2ccc(O)cc2)c2ccc(Cl)c(Cl)c2)CC1 [compound 6, 1′-{(3S)-3-(3,4-dichlorophenyl)-4-[(4-hydroxybenzoyl)-(methyl)amino]butyl}-N,N-dimethyl-1,4′-bipiperidine-4′-carboxamide] | 0.631 nM | 1.58 nM | 0.06 µmol/kg | 0.096 µmol/kg | 0.04 µmol/kg | 2 nM | – | – | – | – | – | – | – | – | – | – | – | – | –
CN(C)C(=O)C1(N2CCCCC2)CCN(CC[C@H](CN(C)C(=O)C2CCCCC2)c2ccc(Cl)c(Cl)c2)CC1 [compound 3] | – | – | – | – | – | – | 8.8 | 8.7 | 0.221 µmol/kg | 0.07 µmol/kg | 0.397 µmol/kg | 8.2 | – | – | – | – | – | – | –
CN(C)C(=O)C1(N2CCCCC2)CCN(CC[C@H](CN(C)C(=O)c2ccccc2)c2ccc(Cl)c(Cl)c2)CC1 [compound 1] | 0.158 nM | 0.2 nM | 0.033 µmol/kg | < 0.003 µmol/kg | 0.044 µmol/kg | 2.51 nM | – | – | – | – | – | – | active orally on the NK2 | 0.457 µmol/kg | 1.08 µmol/kg | 2.24 µmol/kg | – | – | –
CN(C)C(=O)C1(N2CCCCC2)CCN(CC[C@H](CN(C)C(=O)c2cc(F)ccc2F)c2ccc(Cl)c(Cl)c2)CC1 [compound 15] | – | – | – | – | – | – | 9.2 | 8.3 | 0.075 µmol/kg | 0.066 µmol/kg | 0.1 µmol/kg | 8.1 | – | – | – | – | – | – | –
CN(C)C(=O)C1(N2CCCCC2)CCN(CC[C@H](CN(C)C(=O)c2ccc(F)c(F)c2)c2ccc(Cl)c(Cl)c2)CC1 [compound 14] | – | – | – | – | – | – | 9.1 | 8.2 | 0.26 µmol/kg | 0.245 µmol/kg | 0.247 µmol/kg | 8.1 | – | – | – | – | – | – | –
CN(C)C(=O)C1(N2CCCCC2)CCN(CCC(CN(C)C(=O)c2ccc(Cl)nc2)c2ccc(Cl)c(Cl)c2)CC1 (stereo not drawn) [compound 18] | 1.26 nM | 3.16 nM | 0.18 µmol/kg | 0.068 µmol/kg | 0.181 µmol/kg | 10 nM | – | – | – | – | – | – | – | – | – | – | – | – | –
CN(C)C(=O)C1(N2CCCCC2)CCN(CCC(CN(C)C(=O)c2cccnc2)c2ccc(Cl)c(Cl)c2)CC1 (stereo not drawn) [compound 19] | 3.16 nM | 0.501 nM | 0.093 µmol/kg | 0.028 µmol/kg | 0.209 µmol/kg | 50.1 nM | – | – | – | – | – | – | – | – | – | – | – | – | –
CN(C)C(=O)C1(N2CCCCC2)CCN(CC[C@H](CN(C)C(=O)c2ccc(F)cc2)c2ccc(Cl)c(Cl)c2)CC1 [compound 4] | – | – | – | – | – | – | 9.6 | 8.6 | 0.058 µmol/kg | 0.053 µmol/kg | 0.04 µmol/kg | 8.2 | active orally on the NK2 | – | – | – | <3.2 µmol/kg | <3.2 µmol/kg | 12 µmol/kg
CN(C)C(=O)C1(N2CCCCC2)CCN(CC[C@H](CN(C)C(=O)c2cc(C#N)c3ccccc3c2)c2ccc(Cl)c(Cl)c2)CC1 [compound 11] | – | – | – | – | – | – | 8.7 | 8.4 | 0.052 µmol/kg | 0.085 µmol/kg | 0.212 µmol/kg | 8.1 | active orally on the NK2 | – | – | – | 2.213 µmol/kg | 11.228 µmol/kg | 2.509 µmol/kg
CN(C)C(=O)C1(N2CCCCC2)CCN(CC[C@H](CN(C)C(=O)c2ccc(F)cc2F)c2ccc(Cl)c(Cl)c2)CC1 [compound 13] | – | – | – | – | – | – | 9.0 | 8.3 | – | – | – | 8.0 | – | – | – | – | – | – | –
